Assays:
Format in all cases: in vivo
Plutella xylostella = assay: Diamond back moth (Plutella xylostella) cabbage leaf-dip test; conditions: 3rd instar larvae on dipped cabbage leaves, 72 hours after treatment, read-out: mortality in comparison with untreated controls
Procedure: The active compound was dissolved at the desired concentration in a mixture of 1:1 (vol:vol) distilled water:aceteone. Surfactant (Kinetic HV) was added at a rate of 0.01% (vol/vol).The test solution was prepared at the day of use.
Leaves of cabbage were dipped in test solution and air-dried. Treated leaves were placed in petri dishes lined with moist filter paper and inoculated with ten 3rd instar larvae. Mortality was recorded 72 hours after treatment. Feeding damages were also recorded using a scale of 0-100%.

Myzus persicae = assay: Green peach aphid (Myzus persicae) systemic test, artificial diet in microtiter plates; conditions: 72 h, adult aphids on treated artificial diet, 3 days, read-out: mortality in comparison with untreated controls
From the text: For evaluating control of green peach aphid (Myzus persicae) through systemic means the test unit consisted of 96-well-microtiter plates containing liquid artificial diet under an artificial membrane.
The compounds were formulated using a solution containing 75% v/v water and 25% v/v DMSO. Different concentrations of formulated compounds were pipetted into the aphid diet, using a custom built pipetter, at two replications.
After application, 5-8 adult aphids were placed on the artificial membrane inside the microtiter plate wells. The aphids were then allowed to suck on the treated aphid diet and incubated at about 23±1 ° C. and about 50±5% relative humidity for 3 days. Aphid mortality and fecundity was then visually assessed.

Megoura viciae = assay: Vetch aphid (Megoura viciae) broad bean leaf disk test; conditions: foliar, 120 h, adult aphids on sprayed broad bean leaf disks, 5 days, read-out: mortality in comparison with untreated controls
Procedure: For evaluating control of vetch aphid (Megoura viciae) through contact or systemic means the test unit consisted of 24-well-microtiter plates containing broad bean leaf disks.
The compounds were formulated using a solution containing 75% v/v water and 25% v/v DMSO. Different concentrations of formulated compounds were sprayed onto the leaf disks at 2.5 μl, using a custom built micro atomizer, at two replications.
After application, the leaf disks were air-dried and 5- 8 adult aphids placed on the leaf disks inside the microtiter plate wells. The aphids were then allowed to suck on the treated leaf disks and incubated at about 23±1° C. and about 50±5% relative humidity for 5 days. Aphid mortality and fecundity was then visually assessed.

Heliothis virescens = assay: Tobacco budworm (Heliothis virescens) insect diet/egg microtiter test; conditions: 120 h, egg and larval mortality on sprayed insect diet, 5 days, read-out: mortality in comparison with untreated controls
Procedure: For evaluating control of tobacco budworm (Heliothis virescens) the test unit consisted of 96-well-microtiter plates containing an insect diet and 15-25 H. virescens eggs.
The compounds were formulated using a solution containing 75% v/v water and 25% v/v DMSO. Different concentrations of formulated compounds were sprayed onto the insect diet at 10 μl, using a custom built micro atomizer, at two replications.
After application, microtiter plates were incubated at about 28+1° C. and about 80+5% relative humidity for 5 days. Egg and larval mortality was then visually assessed.

Anthonomus grandis = assay: Boll weevil (Anthonomus grandis) insect diet/egg microtiter test; conditions: 120 h, egg and larval mortality on sprayed insect diet, 5 days, read-out: mortality in comparison with untreated controls
Procedure: For evaluating control of boll weevil (Anthonomus grandis) the test unit consisted of 96-well-microtiter plates containing an insect diet and 5-10 A. grandis eggs.
(§1) The compounds were formulated using a solution containing 75% v/v water and 25% v/v DMSO. Different concentrations of formulated compounds were sprayed onto the insect diet at 5 μl, using a custom built micro atomizer, at two replications.
After application, microtiter plates were incubated at about 25±1° C. and about 75±5% relative humidity for 5 days. Egg and larval mortality was then visually assessed.

Dichromothrips corbetti = assay: Orchid thrips (dichromothrips corbetti) floral-immersion test; conditions: adult thrips on dipped orchid petals, 72 hours after treatment, read-out: mortality in comparison with untreated controls
Procedure: Dichromothrips corbetti adults used for bioassay were obtained from a colony maintained continuously under laboratory conditions. For testing purposes, the test compound is diluted in a 1:1 mixture of acetone:water (vol:vol), plus Kinetic HV ata rate of 0.01% v/v.
Thrips potency of each compound was evaluated by using a floral-immersion technique. All petals of individual, intact orchid flowers were dipped into treatment solution and allowed to dry in Petri dishes. Treated petals were placed into individual re-sealable plastic along with about 20 adult thrips. All test arenas were held under continuous light and a temperature of about 28° C. for duration of the assay. After 3 days, the numbers of live thrips were counted on each petal. The percent mortality was recorded 72 hours after treatment.

Nephotettix virescens = assay: Rice green leafhopper (Nephotettix virescens) sprayed rice seedling test; conditions: adults on sprayed rice seedlings, after 72 hours, read-out: mortality in comparison with untreated controls
Procedure: Rice seedlings were cleaned and washed 24 hours before spraying. The active compounds were formulated in 1:1 acetone:water (vol:vol), and 0.01% vol/vol surfactant (Kinetic HV) was added. Potted rice seedlings were sprayed with 5-6 ml test solution, air dried, covered with Mylar cages cages and inoculated with 10 adults. Treated rice plants were kept at about 28-29° C. and relative humidity of about 50-60%. Percent mortality was recorded after 72 hours.

Tetranychus kanzawai = assay: Red spider mite (Tetranychus kanzawai) sprayed cowpea bean test; conditions: mites on sprayed cowpea beans, 72 hours after treatment, read-out: mortality in comparison with untreated controls
Procedure: The active compound was dissolved at the desired concentration in a mixture of 1:1 (vol:vol) distilled water:acetone. Add surfactant (Kinetic HV) was added at a rate of 0.01% (vol/vol).The test solution was prepared at the day of use.
Potted cowpea beans of 4-5 days of age were cleaned with tap water and sprayed with 1-2 ml of the test solution using air driven hand atomizer. The treated plants were allowed to air dry and afterwards inoculated with 30 or more mites by clipping a cassava leaf section from rearing population. Treated plants were placed inside a holding room at about 25-27° C. and about 50-60% relative humidity. Percent mortality was assessed 72 hours after treatment.

Spodoptera eridania = assay: Southern armyworm (Spodoptera eridania) sprayed lima bean foliage test; conditions: foliar, 96 h, larvae on sprayed lima bean plants, 4 days after treatment, read-out: mortality in comparison with untreated controls
Procedure: The active compounds were formulated in cyclohexanone as a 10,000 ppm solution supplied in tubes. The tubes were inserted into an automated electrostatic sprayer equipped with an atomizing nozzle and they served as stock solutions for which lower dilutions were made in 50% acetone:50% water (v/v). A nonionic surfactant (Kinetic®) was included in the solution at a volume of 0.01% (v/v).
Lima bean plants (variety Sieva) were grown 2 plants to a pot and selected for treatment at the 1st true leaf stage. Test solutions were sprayed onto the foliage by an automated electrostatic plant sprayer equipped with an atomizing spray nozzle. The plants were dried in the sprayer fume hood and then removed from the sprayer. Each pot was placed into perforated plastic bags with a zip closure. About 10 to 11 armyworm larvae were placed into the bag and the bags zipped closed. Test plants were maintained in a growth room at about 25° C. and about 20-40% relative humidity for 4 days, avoiding direct exposure to fluorescent light (24 hour photoperiod) to prevent trapping of heat inside the bags. Mortality and reduced feeding were assessed 4 days after treatment, compared to untreated control plants.

Nezara viridula = assay: Green soldier stink bug (Nezara viridula) sprayed soybean pod test; conditions: 120 h, late 3rd instar on sprayed soybean pods, after 5 days, read-out: mortality in comparison with untreated controls
Procedure: The active compound was dissolved at the desired concentration in a mixture of 1:1 (vol:vol) distilled water:acetone. Surfactant (Kinetic HV) was added at a rate of 0.01% (vol/vol). The test solution was prepared at the day of use.Soybean pods were placed in glass Petri dishes lined with moist filter paper and inoculated with ten late 3rd instar N. vindula. Using a hand atomizer, approximately 2 ml solution is sprayed into each Petri dish. Assay arenas were kept at about 25° C. Percent mortality was recorded after 5 days.

Halyomorpha halys = assay: Brown marmorated stink bug (Halyomorpha halys) sprayed peanut/soybean seed test; conditions: 120 h, adult stage, sprayed cups with peanuts and soybean seeds, after 5 days, read-out: mortality in comparison with untreated controls
Procedure: The active compound was dissolved at the desired concentration in a mixture of 1:1 (vol:vol) distilled water:acetone. Surfactant (Kinetic HV) was added at a rate of 0.01% (vol/vol). The test solution was prepared at the day of use.
Row peanuts and soybean seeds were placed into microwavable plastic cups and inoculated with five adult stage H. halys. Using a hand atomizer, approximately 1 ml solution is sprayed into each cup, insects and food present. A water source was provided (cotton wick with water). Each treatment is replicated 4-fold. Assay arenas are kept at about 25° C. Percent mortality was recorded after 5 days.

Ceratitis capitata = assay: Mediterranean fruitfly (Ceratitis capitata) insect diet/egg microtiter test; conditions: 120 h, egg and larval mortality on sprayed insect diet, 5 days, read-out: mortality in comparison with untreated controls
Procedure: For evaluating control of Mediterranean fruitfly (Ceratitis capitata) the test unit consisted of microtiter plates containing an insect diet and 50-80 C. capitata eggs.
as §1
After application, microtiter plates were incubated at about 28±1° C. and about 80±5% relative humidity for 5 days. Egg and larval mortality was then visually assessed.

CC(=O)N1CC2(C1)OCc1cc(C3=CSC(c4cc(Cl)c(F)c(Cl)c4)(C(F)(F)F)C3)ccc12 (centres unmarked) [Compound I-2-2, 1-[6-[2-(3,5-dichloro-4-fluoro-phenyl)-2-(trifluoromethyl)-3H-thiophen-4-yl]spiro[1H-isobenzofuran-3,3′-azetidine]-1′-yl]ethanone]
≥ 75%: mortality at 300 ppm (Plutella xylostella) | mortality at 2500 ppm (Myzus persicae) | mortality at 2500 ppm (Megoura viciae) | mortality at 2500 ppm (Heliothis virescens) | mortality at 2500 ppm (Anthonomus grandis) | mortality at 300 ppm (Dichromothrips corbetti) | mortality at 300 ppm (Nephotettix virescens) | mortality at 300 ppm (Tetranychus kanzawai) | mortality at 10 ppm (Spodoptera eridania) | mortality at 300 ppm (Nezara viridula) | mortality at 100 ppm (Halyomorpha halys)

CCC(=O)N1CC2(C1)OCc1cc(C3=CCC(c4cc(Cl)c(F)c(Cl)c4)(C(F)(F)F)C3)ccc12 (centres unmarked) [Compound I-1-1, 1-[6-[4-(3,5-dichloro-4-fluoro-phenyl)-4-(trifluoromethyl)cyclopenten-1-yl]spiro[1H-isobenzofuran-3,3′-azetidine]-1′-yl]propan-1-one]
≥ 75%: mortality at 300 ppm (Plutella xylostella) | mortality at 2500 ppm (Myzus persicae) | mortality at 2500 ppm (Megoura viciae) | mortality at 2500 ppm (Heliothis virescens) | mortality at 2500 ppm (Anthonomus grandis) | mortality at 2500 ppm (Ceratitis capitata) | mortality at 300 ppm (Dichromothrips corbetti) | mortality at 300 ppm (Nephotettix virescens) | mortality at 300 ppm (Tetranychus kanzawai) | mortality at 10 ppm (Spodoptera eridania) | mortality at 300 ppm (Nezara viridula) | mortality at 100 ppm (Halyomorpha halys)
